Measurements published in patent US20090099174A1, “COMBINATION 059” (ASTRAZENECA AB, priority 2007, published 2009).

Assays:
NCI-H2291 cell line = experiment: 96-hour MTS viable cell number assay, NCI-H2291 cell line (monotherapy and combination); settings: for IC50: Homo sapiens, NCI-H2291, 96 h, read-out: IC50 monotherapy (Geomean)
Experimental: (§5) The NCI-H727, Calu-6, NCI-H2291, NCI-H23, A549 and NCI-H460 cell lines were routinely cultured and assayed in RPMI (phenol red free)+10% Foetal Calf Serum (FCS)+1% glutamine.
(§6) MTS viable cell number assays were carried out to determine seeding densities required for 96 hours of exponential growth. Cells were seeded into 96-well plates at their pre-determined seeding density allowing for log phase growth. […] Following incubation with compound for 96-hours viable cell number was determined using an MTS viable cell number (Promega™) endpoint.

NCI-H727 cell line = experiment: 96-hour MTS viable cell number assay, NCI-H727 cell line (monotherapy and combination); settings: Homo sapiens, NCI-H727, 96 h, read-out: IC50 monotherapy (Geomean)
Experimental: as §5, §6

NCI-H460 cell line = experiment: 96-hour MTS viable cell number assay, NCI-H460 cell line (monotherapy and combination); settings: for IC50: Homo sapiens, NCI-H460, 96 h, read-out: IC50 monotherapy (Geomean)
Experimental: as §5, §6

Calu-6 cell line = experiment: 96-hour MTS viable cell number assay, Calu-6 cell line (monotherapy and combination); settings: Homo sapiens, Calu-6, 96 h, read-out: IC50 monotherapy (Geomean)
Experimental: as §5, §6

LoVo xenografts = experiment: LoVo tumour xenograft growth in nude mice; type: in vivo
Experimental: (§1) LoVo cells were grown in DMEM (Gibco) 10% FCS 1% Glutamine medium and HCT116 cells were grown in McCoys 5A 10% FCS 1% Glutamine, A549a and CaLu-6 cells were grown in RPMI1640 10% FCS 1% Glutamine. […] cells were implanted into the flank of nude mice (LoVo no matrigel, HCT-116, Calu-6 and A549a plus 50% matrigel).
(§2) When mean tumour size reached approximately 0.2 cm^3, the mice were randomized into control and treatment groups. The treatment groups received either 25 or 50 mg/kg AZD6244 (vehicle: HPMC/Tween milled overnight), or 20 mg/kg Compound A (vehicle 10% DMSO, 90% propylene glycol) by oral gavage, Rapamycin was given 4 mg/kg once weekly (10% DMSO-10% Cremaphor-10% Ethanol-70% water for injection. When administered in combination, Compound A was given 2 hours after the oral dose of the other compound. The control group received vehicle (10% DMSO 90% propylene glycol) alone, once daily by oral gavage.
(§3) Tumour volumes (measured by caliper), animal body weight and tumour condition were recorded twice weekly for the duration of the study. Mice were sacrificed by CO2 euthanasia. The tumour volume was calculated (taking length to be the longest diameter across the tumour and width to be the corresponding perpendicular diameter using the formula: (length×width)×√(length×width)×(π/6). Growth inhibition from the start of treatment was assessed by comparison of the differences in tumour volume between control and treated groups. Because the variance in mean tumour volume data increases proportionally with volume (and is therefore disproportionate between groups), data were log-transformed to remove any size dependency before statistical evaluation.
Statistical significance was evaluated using a one-tailed, two-sample t test. To analyze the data from the combination study, the statistical tool SigmaStat has been used. A two-way ANOVA test was performed using the factors concentration of drug A and concentration of drug B. The data analyzed was Log (final tumour volume)-Log (initial tumour volume) calculated for each individual group at the end of the study. This tool is used to assess whether there is a main effect of drug A, a main effect of drug B plus a significant interaction between the two compounds A and B (eg. one compound influences the effect of the other compound) which may be interpreted as antagonism, additivity or synergism.

Calu-6 xenografts = experiment: Calu-6 tumour xenograft growth in nude mice; type: in vivo
Experimental: as §1, §2, §3
(§4) Statistical significance was evaluated using a one-tailed, two-sample t test. To analyze the data from the combination study, the statistical tool SigmaStat has been used. A two-way ANOVA test was performed using the factors concentration of drug A and concentration of drug B. The data analyzed was Log (final tumour volume)-Log (initial tumour volume) calculated for each individual group at the end of the study. […]

HCT-116 xenografts = experiment: HCT-116 tumour xenograft growth in nude mice; type: in vivo
Experimental: as §1
When mean tumour size reached approximately 0.2 cm^3, the mice were randomized into control and treatment groups. […]
as §3, with “Mice were sacrificed by CO2 euthanasia.” left out
Statistical significance was evaluated using a one-tailed, two-sample t test. […]

A549a xenografts = experiment: A549a tumour xenograft growth in nude mice; type: in vivo
Experimental: as §1, §2, §3, §4

A549 cell line = experiment: 96-hour MTS viable cell number assay, A549 cell line (monotherapy and combination); settings: for IC50: Homo sapiens, A549, 96 h, read-out: IC50 monotherapy (Geomean)
Experimental: as §5, §6

pERK 1/2(Thr202/Tyr204) = experiment: pharmacodynamic effect of AZD6244 against pERK 1/2; type: cell-based
A2058 cell line = experiment: 96-hour MTS viable cell number assay, A2058 cell line (monotherapy and concurrent combination); type: cell-based; settings: Homo sapiens, 96-hour viable cell number endpoint by MTS, read-out: IC50 monotherapy (Geomean)
From the text: The objective of this assay was to determine the in-vitro combination interaction when combining AZD6244 or 2-(2-fluoro-4-iodophenylamino)-N-(2-hydroxyethoxy)-1,5-dimethyl-6-oxo-1,6-dihydropyridine-3-carboxamide concurrently with Compound A or Rapamycin in the A2058, NCI-H727, Calu-6, NCI-H2291, NCI-H23, A549 and NCI-H460 cell lines using a 96-hour viable cell number endpoint (MTS).
The A2058 cell line was routinely cultured and assayed in DMEM (phenol red free)+10% Foetal Calf Serum (FCS)+1% glutamine. The A2058 cell line is wild type for HRAS, KRAS and NRAS and mutant for the BRAF V600E mutation.
MTS viable cell number assays were carried out to determine seeding densities required for 96 hours of exponential growth. Cells were seeded into 96-well plates at their pre-determined seeding density allowing for log phase growth. After 4-hours cells were dosed with monotherapy AZD6244, 2-(2-fluoro-4-iodophenylamino)-N-(2-hydroxyethoxy)-1,5-dimethyl-6-oxo-1,6-dihydropyridine-3-carboxamide, Compound A, or Rapamycin using the Hydra/ECHO 550 platform. Following incubation with compound for 96-hours viable cell number was determined using an MTS viable cell number (Promega™) endpoint.
Concurrent combination: Cells were seeded into 96-well plates at the above-determined seeding density allowing for log phase growth. After 4 hours cells were dosed concurrently with
Non-linear MEA (Median Effect Analysis): The combination interaction between 2 active agents, each with well defined IC50 monotherapy dose responses was assessed using equal inhibitory effect ratios of the two agents (IC60, IC50, IC40, IC30, IC20, IC10). A combination index (CI)<0.85 indicates a synergistic interaction, CI 0.85-1.2 additivity and a CI>1.2 antagonism.
That is a fixed dose of the partially active agent (in MTS assays) was applied across the full dose response of the active agent. Relative potency is defined as the ratio of the combination IC50 to the monotherapy IC50.

NCI-H23 cell line = experiment: 96-hour MTS viable cell number assay, NCI-H23 cell line (monotherapy and combination); settings: for IC50: Homo sapiens, NCI-H23, 96 h, read-out: IC50 monotherapy (Geomean)
Experimental: as §5, §6

[1] = 20 mg/kg Compound A, oral gavage

Structure (SMILES) | IC50 (NCI-H2291 cell line) [µM] | IC50 (NCI-H727 cell line) [µM] | IC50 (NCI-H460 cell line) [µM] | IC50 (Calu-6 cell line) [µM] | IC50 (A549 cell line) [µM] | IC50 (A2058 cell line) [µM] | IC50 (NCI-H23 cell line) [µM] | other results
Cn1cnc2c(F)c(Nc3ccc(Br)cc3Cl)c(C(=O)NOCCO)cc21 [AZD6244] | 0.704 | 0.036 | 32.4 | 0.257 | 12.4 | 0.526 | 1.84 | reduction in geometric mean delta tumour volume compared with the vehicle treated control (LoVo xenografts; 25 mg/kg twice daily AZD6244): 38.7%; reduction in geometric mean delta tumour volume compared with the vehicle control (LoVo xenografts; 50 mg/kg AZD6244, oral gavage): 43%; reduction in geometric mean delta tumour volume compared with the vehicle treated control (Calu-6 xenografts; 50 mg/kg once daily AZD6244): 93.2%; reduction in geometric mean delta tumour volume compared with the vehicle control (HCT-116 xenografts; 25 mg/kg AZD6244, oral gavage): 59%; reduction in geometric mean delta tumour volume compared with the vehicle treated control (A549a xenografts; 25 mg/kg once daily AZD6244): 53.4%; ED90, pharmacodynamic effect against pERK 1/2(Thr202/Tyr204) (pERK 1/2(Thr202/Tyr204)): 333 nM; ED95, pharmacodynamic effect against pERK 1/2(Thr202/Tyr204) (pERK 1/2(Thr202/Tyr204)): 1000 nM; EC50 (pERK 1/2(Thr202/Tyr204); read-out: ED50, pharmacodynamic effect against pERK 1/2(Thr202/Tyr204)): 0.02 µM
COc1ccc(-c2ccc3c(N4CCOC[C@@H]4C)nc(N4CCOC[C@@H]4C)nc3n2)cc1CO [Compound A, [5-[2,4-bis[(3S)-3-methylmorpholin-4-yl]pyrido[5,6-e]pyrimidin-7-yl]-2-methoxyphenyl]methanol] | 0.023 | 0.068 | 0.026 | 0.05 | 0.037 | 0.046 | 0.03 | reduction in geometric mean delta tumour volume compared with the vehicle control (LoVo xenografts; [1]): 66%; reduction in geometric mean delta tumour volume compared with the vehicle treated control (Calu-6 xenografts; 20 mg/kg once daily Compound A): 44.9%; reduction in geometric mean delta tumour volume compared with the vehicle control (HCT-116 xenografts; [1]): 24%; reduction in geometric mean delta tumour volume compared with the vehicle treated control (A549a xenografts; 20 mg/kg once daily Compound A): 94.1%
Cc1cc(C(=O)NOCCO)c(Nc2ccc(I)cc2F)n(C)c1=O [2-(2-fluoro-4-iodophenylamino)-N-(2-hydroxyethoxy)-1,5-dimethyl-6-oxo-1,6-dihydropyridine-3-carboxamide] |  |  |  |  |  | 0.025 |  | 
CO[C@H]1C[C@@H]2CC[C@@H](C)[C@@](O)(O2)C(=O)C(=O)N2CCCC[C@H]2C(=O)O[C@H]([C@H](C)C[C@@H]2CC[C@@H](O)[C@H](OC)C2)CC(=O)[C@H](C)/C=C(\C)[C@@H](O)[C@@H](OC)C(=O)[C@H](C)C[C@H](C)/C=C/C=C/C=C/1C [Rapamycin] | > 10 | > 10 | > 10 | > 10 | > 10 | > 10 | > 10 | growth inhibitory effect reached (NCI-H2291 cell line; NCI-H2291, regardless of the presence of AZD6244): < 50%; growth inhibitory effect reached (NCI-H460 cell line; NCI-H460, regardless of the presence of AZD6244): < 50%; reduction in geometric mean delta tumour volume compared with the vehicle treated control (LoVo xenografts; 4 mg/kg Rapamycin): 38.2%; reduction in geometric mean delta tumour volume compared with the vehicle treated control (Calu-6 xenografts; 4 mg/kg once weekly Rapamycin): 37.2%; reduction in geometric mean delta tumour volume compared with the vehicle treated control (A549a xenografts; 4 mg/kg once weekly Rapamycin): 69.5%; growth inhibitory effect reached (A549 cell line; A549, regardless of the presence of AZD6244): < 50%; growth inhibitory effect reached (NCI-H23 cell line; NCI-H23, regardless of the presence of AZD6244): < 50%
